Reference: US10358436B2, “Kinase inhibitors and method of treating cancer” (University Health Network, priority 2010, dated 2019)
Counter-ions that a name gives are not always drawn.

Target: Aurora A (Homo sapiens (Human), UniProt O14965)
Experiment: Aurora A inhibition assay (Z-Lyte)
Type: biochemical

Chain of Aurora A (O14965 whole entry): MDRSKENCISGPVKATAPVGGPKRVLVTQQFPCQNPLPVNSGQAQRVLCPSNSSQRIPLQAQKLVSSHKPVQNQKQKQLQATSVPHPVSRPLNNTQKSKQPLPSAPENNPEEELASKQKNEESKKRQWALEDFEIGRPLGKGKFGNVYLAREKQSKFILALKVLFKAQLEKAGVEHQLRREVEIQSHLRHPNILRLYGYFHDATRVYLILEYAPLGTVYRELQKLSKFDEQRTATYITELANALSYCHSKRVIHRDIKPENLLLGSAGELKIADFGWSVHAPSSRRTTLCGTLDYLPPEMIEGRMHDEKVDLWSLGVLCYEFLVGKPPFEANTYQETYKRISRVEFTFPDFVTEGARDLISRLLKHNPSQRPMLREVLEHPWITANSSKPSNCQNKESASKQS

Compound | inhibition at 1 µM [%]
CN1CCN(c2ccc(-c3n[nH]c4cc([C@@H]5C[C@@]56C(=O)Nc5ccc(F)cc56)ccc34)cn2)CC1 (relative stereo) [Example A210, 1R*,2S*1-5′-fluoro-2-(3-(6-(4-methylpiperazine-1-yl)pyridine-3-yl)-1H-indazol-6-yl)-spiro[cyclopropane-1,3′-indolin]-2′-one] | > 50
CN1CCC(Cc2ccc(/C=C/c3n[nH]c4cc([C@@H]5C[C@@]56C(=O)Nc5ccccc56)ccc34)cc2)CC1 [Example A81, (1R,2S)-(E)-2-(3-(4-((l-methylpiperidin-4-yl)methyl)styryl)-1H-indazol-6-yl)spiro[cyclopropane-1,3′-indolin]-2′-one 2,2,2-trifluoroacetate salt] | > 50
COc1ccc2c(c1)[C@]1(C[C@H]1c1ccc3c(-c4ccc(N5CCC(O)CC5)nc4)n[nH]c3c1)C(=O)N2 (relative stereo) [Example A117, (1R*,2S*)-2-(3-(6-(4-hydroxypiperidin-1-yl)pyridin-3-yl)-1H-indazol-6-yl)-S-methoxyspiro[cyclopropane-1,3′-indolin]-2′-one 2,2,2-trifluoroacetate] | < 50
COc1ccc2c(c1)[C@]1(C[C@H]1c1ccc3c(/C=C/c4ccc(CN5[C@H](C)CCC[C@@H]5C)cc4)n[nH]c3c1)C(=O)N2 [Example A203, (1R,2S)-(E)-2-(3-(4-((cis-2,6-dimethylpiperidin-1-yl)methyl)styryl)-1H-indazol-6-yl)-5′-methoxyspiro[cyclopropane-1,3′-indolin]-2′-one 2,2,2-trifluoroacetate] | > 50
COc1ccc2c(c1)[C@]1(C[C@H]1c1ccc3c(C#Cc4ccc(C=O)cc4)n[nH]c3c1)C(=O)N2 (relative stereo) [Example A137, 4-((6-((1R*,2S*)-5′-methoxy-2′-oxospiro[cyclopropane-1,3′-indoline]-2-yl)-1H-indazol-3-yl)ethynyl)benzaldehyde] | < 50
COc1ccc2c(c1)[C@]1(C[C@H]1c1ccc3c(C#Cc4ccc(CN5CCN(C)CC5)cc4)n[nH]c3c1)C(=O)N2 (relative stereo) [Example A145, (1R*,2S*)-5′-methoxy-2-(3-((4-((4-methylpiperazin-1-yl)methyl)phenyl)ethynyl)-1H-indazol-6-yl)spiro[cyclopropane-1,3′-indolin]-2′-one bis(2,2,2-trifluoroacetate)] | < 50
COc1ccc2c(c1)[C@]1(C[C@H]1c1ccc3c(/C=C/c4cc(F)c(CN5CCOCC5)c(F)c4)n[nH]c3c1)C(=O)N2 [Example A218, (1R,2S)-(E)-2-(3-(3,5-difluoro-4-(morpholinomethyl)styryl)-1H-indazol-6-yl)-5′-methoxyspiro[cyclopropane-1,3′-indolin]-2′-one 2,2,2-trifluoroacetate] | > 50
COc1ccc2c(c1)[C@]1(C[C@H]1c1ccc3c(C#Cc4cccnc4)n[nH]c3c1)C(=O)N2 (relative stereo) [Example A52, (1R*,2S*)- and (1R*,2S*)-5′-methoxy-2-(3-(pyridin-3-ylethynyl)-1H-indazol-6-yl)spiro[cyclopropane-1,3′-indolin]-2′-one] | < 50
COc1ccc2c(c1)[C@]1(C[C@H]1c1ccc3c(-c4ccc(CN5CCOCC5)cc4)n[nH]c3c1)C(=O)N2 (relative stereo) [Example A139, (1R*,2S*)-5′-methoxy-2-(3-(4-(morpholinomethyl)phenyl)-1H-indazol-6-yl)spiro[cyclopropane-1,3′-indolin]-2′-one 2,2,2-trifluoroacetate] | < 50
C[C@@H]1CCC[C@H](C)N1Cc1ccc(/C=C/c2n[nH]c3cc([C@@H]4C[C@@]45C(=O)Nc4ccccc45)ccc23)cc1 [Example A201, (1R,2S)-(E)-2-(3-(4-((cis-2,6-dimethylpiperidin-1-yl)methyl)styryl)-1H-indazol-6-yl)spiro[cyclopropane-1,3′-indolin]-2′-one 2,2,2-trifluoroacetate] | > 50
